This is an account of results in the Kinase Knowledgebase extract (Sharma et al. 2016).

Usually IC50 stands for the concentration that gives 50% inhibition. Low readings indicate greater potency in that assay, high ones weaker potency in that assay.

EGFR (human), sequence (P00533 whole entry, looked up): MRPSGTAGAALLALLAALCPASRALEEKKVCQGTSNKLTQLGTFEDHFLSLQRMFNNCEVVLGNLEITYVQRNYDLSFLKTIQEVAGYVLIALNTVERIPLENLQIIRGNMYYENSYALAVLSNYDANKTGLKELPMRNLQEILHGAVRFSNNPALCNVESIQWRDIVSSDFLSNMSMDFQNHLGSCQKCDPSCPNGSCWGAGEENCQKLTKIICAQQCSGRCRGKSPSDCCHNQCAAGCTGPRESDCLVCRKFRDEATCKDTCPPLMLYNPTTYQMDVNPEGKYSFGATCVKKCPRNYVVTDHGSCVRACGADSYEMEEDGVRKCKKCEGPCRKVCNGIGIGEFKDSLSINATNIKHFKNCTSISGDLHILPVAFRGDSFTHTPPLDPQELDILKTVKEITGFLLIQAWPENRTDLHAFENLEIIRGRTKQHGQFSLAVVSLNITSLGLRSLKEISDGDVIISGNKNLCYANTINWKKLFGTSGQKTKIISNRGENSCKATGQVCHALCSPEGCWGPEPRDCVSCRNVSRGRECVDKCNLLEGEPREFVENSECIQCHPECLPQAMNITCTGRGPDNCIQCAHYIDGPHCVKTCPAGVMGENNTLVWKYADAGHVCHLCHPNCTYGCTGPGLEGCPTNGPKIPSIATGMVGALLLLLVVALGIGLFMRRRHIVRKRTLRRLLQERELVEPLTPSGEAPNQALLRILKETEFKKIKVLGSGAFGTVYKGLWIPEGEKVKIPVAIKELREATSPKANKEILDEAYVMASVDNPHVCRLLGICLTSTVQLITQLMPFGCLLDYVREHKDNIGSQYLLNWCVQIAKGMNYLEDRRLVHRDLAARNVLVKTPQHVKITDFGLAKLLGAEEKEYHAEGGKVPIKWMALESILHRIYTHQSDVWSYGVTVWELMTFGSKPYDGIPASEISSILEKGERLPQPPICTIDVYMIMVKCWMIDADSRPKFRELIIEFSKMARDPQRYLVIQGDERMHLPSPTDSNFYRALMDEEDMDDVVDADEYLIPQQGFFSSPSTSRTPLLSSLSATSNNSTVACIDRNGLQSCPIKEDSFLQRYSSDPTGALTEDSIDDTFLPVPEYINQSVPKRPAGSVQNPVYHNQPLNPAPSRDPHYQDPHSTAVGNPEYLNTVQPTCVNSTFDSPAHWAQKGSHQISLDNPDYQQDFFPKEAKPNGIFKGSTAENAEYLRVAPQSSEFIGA

One test has as its target EGFR (human) (UniProt P00533). Particulars: her 14.
`COc1cc(/C=C(\C#N)C(N)=O)cc(CSc2ccccc2NC(C)=O)c1O` displayed an IC50 of 9 µM. Same read-out and setting: to `COc1cc(C=C(C#N)C#N)cc(CS(=O)(=O)c2ccc(C)cc2)c1O` belongs 15 µM; to `COc1cc(/C=C(\C#N)C(N)=O)cc(CSc2ccccn2)c1O`, 16 µM. For `COc1cc(/C=C(\C#N)C(N)=O)cc(CSCc2ccccc2Cl)c1O`, the IC50 turned out to be 10 µM. Compound `COc1cc(/C=C(\C#N)C(N)=O)cc(CSc2ccc3ccccc3c2)c1O` registered an IC50 of 10 µM. Still for that read-out and setting: to `COc1cc(/C=C(\C#N)C(N)=O)cc(CSc2ccc(O)cc2)c1O` belongs 2 µM; to `COc1cc(C=C(C#N)C#N)cc(CSc2ccccc2)c1O`, 6 µM; to `N#C/C(=C\c1cc(O)c(O)c(CSCc2ccccc2)c1)C(N)=O`, 3 µM. Consider `COc1cc(/C=C(\C#N)C(N)=O)cc(CSc2ccccc2)c1O`, for which the half-maximal inhibitory concentration (IC50) is 12.5 µM. On the same count and under the same terms, the result for `Cc1cc(C=C(C#N)C#N)cc(O)c1O` reads 13 µM; that for `COc1cc(/C=C(\C#N)C(N)=O)cc(CSCc2ccc(Cl)cc2)c1O`, 20 µM; that for `COc1cc(C=C(C#N)C#N)cc(CSc2ccccc2C(=O)O)c1O`, more than 50 µM. The same measure, in the same setting: to `COc1cc(/C=C(\C#N)C(N)=O)cc(CSc2nc3ccccc3[nH]2)c1O` belongs 35 µM. On to `COc1cc(/C=C(\C#N)C(=O)c2ccc(O)c(O)c2)cc(CSCc2ccccc2)c1O`, for which the concentration for half-maximal inhibition (IC50) is 2 µM. As to `N#C/C(=C\c1cc(O)c(O)c(CSc2nc3ccccc3s2)c1)C(N)=O`, the IC50 was more than 50 µM. The same measure, in the same setting: the result for `COc1cc(/C=C(\C#N)C(N)=O)cc(CSCc2ccccc2)c1O` reads 12.5 µM. On to `COc1cc(C=C(C#N)C#N)cc(CSCC(=O)O)c1O`, for which the IC50 was more than 50 µM.

For the compound `COc1cc(/C=C(\C#N)C(N)=O)cc(CSc2ccccc2C(=O)O)c1O`, the concentration for half-maximal inhibition (IC50) was more than 50 µM. Compound `COc1cc(/C=C(\C#N)C(N)=O)cc(CSc2nc3ccccc3o2)c1O` returned an IC50 of 6 µM.

The target of another test is EGFR (UniProt P00533).
EGFR, sequence (P00533 whole entry, looked up): as above
Settings: not given
Regarding `COc1cc(/C=C(\C#N)C(=O)c2ccc(C)cc2)cc(CSCc2ccccc2)c1O`, the IC50 turned out to be 4.5 µM.
